Laboratory results from ChEMBL document CHEMBL2390874, “Synthesis, antibacterial activity and cytotoxicity of new fused pyrazolo[1,5-a]pyrimidine and pyrazolo[5,1-c][1,2,4]triazine derivatives from new 5-aminopyrazoles” (Eur J Med Chem, 2013).
Converted amounts (≈) assume the structure as drawn. The source made the active and inactive calls. The calls are words filed in the database; no cut-off is given here.

Tests used:
[1] = test system: Enterococcus faecalis; experiment: Antibacterial activity against Enterococcus faecalis ATCC 14506 assessed as growth inhibition at 1 mg/ml after 24 hrs by agar diffusion method; assay type: functional, organism-based
[2] = test system: Staphylococcus epidermidis; experiment: Antibacterial activity against Staphylococcus epidermidis ATCC 12228 assessed as growth inhibition at 1 mg/ml after 24 hrs by agar diffusion method; assay type: functional, organism-based
[3] = test system: Staphylococcus aureus; experiment: Antibacterial activity against methicillin-resistant Staphylococcus aureus ATCC 43300 assessed as growth inhibition at 1 mg/ml after 24 hrs by agar diffusion method; assay type: functional, organism-based
[4] = test system: Salmonella typhimurium; experiment: Antibacterial activity against Salmonella typhimurium ATCC 51812 assessed as growth inhibition at 1 mg/ml after 24 hrs by agar diffusion method; assay type: functional, organism-based; conditions: Salmonella enterica subsp. enterica serovar Typhimurium
[5] = Selectivity index, ratio of CC50 for african green monkey vero cells to MIC for Pseudomonas aeruginosa ATCC 10145; assay type: functional
[6] = test system: Escherichia coli; experiment: Bactericidal activity against Escherichia coli ATCC 10536 by broth dilution method; assay type: functional
[7] = test system: Escherichia coli; experiment: Antibacterial activity against Escherichia coli ATCC 10536 assessed as growth inhibition by broth dilution method; assay type: functional
[8] = test system: Pseudomonas aeruginosa; experiment: Bactericidal activity against Pseudomonas aeruginosa ATCC 10145 by broth dilution method; assay type: functional
[9] = test system: Staphylococcus aureus; experiment: Antibacterial activity against Staphylococcus aureus ATCC 25923 assessed as growth inhibition by broth dilution method; assay type: functional
[10] = test system: Bacillus subtilis; experiment: Bactericidal activity against Bacillus subtilis ATCC 11774 by broth dilution method; assay type: functional
[11] = test system: Staphylococcus aureus; experiment: Antibacterial activity against Staphylococcus aureus ATCC 25923 assessed as growth inhibition at 1 mg/ml after 24 hrs by agar diffusion method; assay type: functional; conditions: ATCC 25923, 24 h, read-out: DIZ
[12] = test system: Bacillus subtilis; experiment: Antibacterial activity against Bacillus subtilis ATCC 11774 assessed as growth inhibition by broth dilution method; assay type: functional
[13] = test system: Bacillus subtilis; experiment: Antibacterial activity against Bacillus subtilis ATCC 11774 assessed as growth inhibition at 1 mg/ml after 24 hrs by agar diffusion method; assay type: functional; conditions: ATCC 11774, 24 h, read-out: DIZ
[14] = test system: Pseudomonas aeruginosa; experiment: Antibacterial activity against Pseudomonas aeruginosa ATCC 10145 assessed as growth inhibition by broth dilution method; assay type: functional
[15] = test system: Pseudomonas aeruginosa; experiment: Antibacterial activity against Pseudomonas aeruginosa ATCC 10145 assessed as growth inhibition at 1 mg/ml after 24 hrs by agar diffusion method; assay type: functional; conditions: ATCC 10145, 24 h, read-out: DIZ
[16] = Selectivity index, ratio of CC50 for african green monkey vero cells to MIC for Escherichia coli ATCC 10536; assay type: functional
[17] = test system: Serratia marcescens; experiment: Antibacterial activity against Serratia marcescens ATCC 13880 assessed as growth inhibition at 1 mg/ml after 24 hrs by agar diffusion method; assay type: functional; conditions: ATCC 13880, 24 h, read-out: DIZ
[18] = Selectivity index, ratio of CC50 for african green monkey vero cells to MIC for Staphylococcus aureus ATCC 25923; assay type: functional
[19] = test system: Staphylococcus aureus; experiment: Bactericidal activity against Staphylococcus aureus ATCC 25923 by broth dilution method; assay type: functional
[20] = Selectivity index, ratio of CC50 for african green monkey vero cells to MIC for Bacillus subtilis ATCC 11774; assay type: functional
[21] = test system: Escherichia coli; experiment: Antibacterial activity against Escherichia coli ATCC 10536 assessed as growth inhibition at 1 mg/ml after 24 hrs by agar diffusion method; assay type: functional; conditions: ATCC 10536, 24 h, read-out: DIZ
[22] = Cytotoxicity against african green monkey vero cells by MTT assay; assay type: cell-based; conditions: chlorocebus sabaeus

Compound | growth inhibition (GI) [1] | growth inhibition (GI) [2] | growth inhibition (GI) [3] | growth inhibition (GI) [4] | MBC [6] [mg/mL] | MIC [7] [mg/mL] | MIC [9] [mg/mL] | MBC [10] [mg/mL] | zone of inhibition at 1000 µg/mL [11] [mm] | MIC [12] [mg/mL] | zone of inhibition at 1000 µg/mL [13] [mm] | zone of inhibition at 1000 µg/mL [15] [mm] | zone of inhibition at 1000 µg/mL [17] [mm] | MBC [19] [mg/mL] | Selectivity Index [20] | zone of inhibition at 1000 µg/mL [21] [mm] | CC50 [22] [mg/mL] | other results
Cc1cc(C)n2nc(N3CCOCC3)c(C#N)c2n1 | inactive | inactive | inactive | inactive | – | – | – | – | – | – | – | – | – | – | – | – | – | –
Cc1cc(O)n2nc(N3CCOCC3)c(C#N)c2n1 | inactive | inactive | inactive | inactive | > 16 | 16 (≈ 61.7 mM) | 16 (≈ 61.7 mM) | 16 (≈ 61.7 mM) | 9 | 8 (≈ 30.9 mM) | 9 | 7 | 6 | 16 (≈ 61.7 mM) | 0.01 | 10 | 0.063 (≈ 0.243 mM) | Selectivity Index [5]: 0.01; MBC [8]: > 16 mg/mL; MIC [14]: 8 mg/mL (≈ 30.9 mM); Selectivity Index [16]: 0; Selectivity Index [18]: 0
CC(=O)n1nc(N2CCOCC2)c(C#N)c1N | inactive | inactive | inactive | inactive | – | – | – | – | – | – | – | – | – | – | – | – | – | –
CC(=O)n1nc(N2CCCCC2)c(C#N)c1N | inactive | inactive | inactive | inactive | 16 (≈ 68.6 mM) | 16 (≈ 68.6 mM) | 16 (≈ 68.6 mM) | 16 (≈ 68.6 mM) | 10 | 16 (≈ 68.6 mM) | 6 | 6 | 6 | > 16 | 0.06 | 10 | 1.01 (≈ 4.35 mM) | –
Cc1ccc(C)n1-c1[nH]nc(N2CCOCC2)c1C#N | inactive | inactive | inactive | inactive | 8 (≈ 29.5 mM) | 4 (≈ 14.7 mM) | 2 (≈ 7.37 mM) | 4 (≈ 14.7 mM) | 10 | 2 (≈ 7.37 mM) | 14 | 6 | 6 | 4 (≈ 14.7 mM) | 0.13 | 10 | 0.254 (≈ 0.936 mM) | Selectivity Index [16]: 0.06; Selectivity Index [18]: 0.06
N#Cc1nnc2c(C#N)c(N3CCCCC3)nn2c1N | inactive | inactive | inactive | inactive | 16 (≈ 59.6 mM) | 16 (≈ 59.6 mM) | 16 (≈ 59.6 mM) | 16 (≈ 59.6 mM) | 11 | 16 (≈ 59.6 mM) | 11 | 7 | 6 | 16 (≈ 59.6 mM) | 0.09 | 10 | 1.4 (≈ 5.22 mM) | Selectivity Index [5]: 0.09; MBC [8]: 16 mg/mL (≈ 59.6 mM); MIC [14]: 16 mg/mL (≈ 59.6 mM); Selectivity Index [16]: 0.09; Selectivity Index [18]: 0.09
Cc1cc(O)n2nc(N3CCCC3)c(C#N)c2n1 | inactive | inactive | inactive | inactive | – | – | – | – | – | – | – | – | – | – | – | – | – | –
N#Cc1c(N)nc2c(C#N)c(N3CCOCC3)nn2c1N1CCCCC1 | inactive | inactive | inactive | inactive | – | – | – | – | – | – | – | – | – | – | – | – | – | –
N#Cc1nnc2c(C#N)c(N3CCOCC3)nn2c1N | inactive | inactive | inactive | inactive | – | – | – | – | – | – | – | – | – | – | – | – | – | –
CSc1c(C#N)c(N)nc2c(C#N)c(N3CCOCC3)nn12 | inactive | inactive | inactive | inactive | – | – | – | – | – | – | – | – | – | – | – | – | – | –
CC(=O)c1nnc2c(C#N)c(N3CCCC3)nn2c1C | inactive | inactive | inactive | inactive | – | – | – | – | – | – | – | – | – | – | – | – | – | –
CSc1c(C#N)c(N)nc2c(C#N)c(N3CCCC3)nn12 | inactive | inactive | inactive | inactive | – | – | – | – | – | – | – | – | – | – | – | – | – | –
Cc1cc(O)n2nc(N3CCCCC3)c(C#N)c2n1 | inactive | inactive | inactive | inactive | – | – | – | – | – | – | – | – | – | – | – | – | – | –
N#Cc1nnc2c(C#N)c(N3CCCC3)nn2c1N | inactive | inactive | inactive | inactive | – | – | – | – | – | – | – | – | – | – | – | – | – | –
N#Cc1c(N)nc2c(C#N)c(N3CCCC3)nn2c1N1CCOCC1 | inactive | inactive | inactive | inactive | – | – | – | – | – | – | – | – | – | – | – | – | – | –
CC(=O)n1nc(N2CCCC2)c(C#N)c1N | inactive | inactive | inactive | inactive | 16 (≈ 73 mM) | 8 (≈ 36.5 mM) | 16 (≈ 73 mM) | 16 (≈ 73 mM) | 14 | 16 (≈ 73 mM) | 14 | 6 | 6 | > 16 | 0.18 | 16 | 2.81 (≈ 12.8 mM) | Selectivity Index [16]: 0.18; Selectivity Index [18]: 0.18
GENTAMICIN | – | – | – | – | – | – | – | – | – | – | – | – | – | – | – | – | – | MBC [8]: 0.002 mg/mL; MIC [14]: 0.001 mg/mL
N#Cc1c(N)nc2c(C#N)c(N3CCOCC3)nn2c1N1CCOCC1 | inactive | inactive | inactive | inactive | – | – | – | – | – | – | – | – | – | – | – | – | – | –
CC(=O)c1nnc2c(C#N)c(N3CCCCC3)nn2c1C | inactive | inactive | inactive | inactive | 16 (≈ 56.3 mM) | 16 (≈ 56.3 mM) | 16 (≈ 56.3 mM) | 16 (≈ 56.3 mM) | 9 | 16 (≈ 56.3 mM) | 10 | 6 | 6 | 16 (≈ 56.3 mM) | 0.02 | 8 | 0.312 (≈ 1.1 mM) | Selectivity Index [16]: 0.02; Selectivity Index [18]: 0.02
N#Cc1c(N)nc2c(C#N)c(N3CCCC3)nn2c1N1CCCCC1 | inactive | inactive | inactive | inactive | – | – | – | – | – | – | – | – | – | – | – | – | – | –
Cc1ccc(C)n1-c1[nH]nc(N2CCCC2)c1C#N | inactive | inactive | inactive | inactive | 16 (≈ 62.7 mM) | 8 (≈ 31.3 mM) | 8 (≈ 31.3 mM) | 8 (≈ 31.3 mM) | 7 | 4 (≈ 15.7 mM) | 8 | 6 | 6 | 8 (≈ 31.3 mM) | 0.14 | 13 | 0.55 (≈ 2.15 mM) | Selectivity Index [16]: 0.07; Selectivity Index [18]: 0.07
CC(=O)c1nnc2c(C#N)c(N3CCOCC3)nn2c1C | inactive | inactive | inactive | inactive | – | – | – | – | – | – | – | – | – | – | – | – | – | –
Cc1cc(C)n2nc(N3CCCC3)c(C#N)c2n1 | inactive | inactive | inactive | inactive | – | – | – | – | – | – | – | – | – | – | – | – | – | –
